Here are results for two molecules from paper PMC6278366, “Synthesis and Evaluation of Anticancer Activities of Novel C-28 Guanidine-Functionalized Triterpene Acid Derivatives” (Molecules, 2018).

For orientation: IC50 means the concentration that inhibits the measured activity by half.

Counter-ions that a name gives are not always drawn.

Experiment [1] deals with U937 (histiocytic lymphoma) cells. Put plainly: Cytotoxicity assay (7-AAD viability, flow cytometry), U937. To be noted: Homo sapiens, U-937, mean ± SE, at least three experiments in duplicate; viable cells; read-out: IC50 U937. It is filed as cell-based, human. The method, boiled down:
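Suspension lines in RPMI 1640 with 10% FBS at 37 °C, 5% CO2, treated with compounds at 1, 5, 10, 15, 30 and 60 μM. Live/dead status by 7-AAD staining (15 min, room temperature, dark) read on flow cytometer, 488 nm excitation, 675/30 nm emission.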
For orientation: Flow cytometry measures light scatter and fluorescence of single cells or particles in a stream.

Another experiment deals with normal human fibroblasts. Put plainly: Cytotoxicity assay (7-AAD viability, flow cytometry), normal fibroblasts. The format is cell-based. To be noted: Homo sapiens, Fibroblast, mean ± SE, at least three experiments in duplicate.
For another experiment, the system named is Jurkat cells. Put plainly: Cell cycle analysis (propidium iodide staining, flow cytometry). It is filed as cell-based, human. Conditions: 48 h, at IC50 concentration (59 μM Dihydro BA; 4 μM 15, 15c, 18c; 8 μM 20c); for cells in G2/M phase: control 14.5%. The procedure:
Cell cycle was analyzed using the method of propidium iodide staining. Briefly, cells were plated in 24-well round bottom plates at density 10 × 10^5 cells per well, centrifuged at 450× g for 5 min, and fixed with ice-cold 70% ethanol for 24 h at 0 °C. Cells were then washed with PBS and incubated with 250 μL of Guava Cell Cycle Reagent (Millipore, Burlington, MA, USA) for 30 min at room temperature in the dark. Samples were analyzed on NovoCyte^TM 2000 FlowCytometry System (ACEA, San Diego, CA, USA).
Figure 3 Cell cycle analysis in Jurkat cells. […] The cells were trypsinized, harvested and washed three times with ice-PBS for PI-stained DNA content detected by flow cytometry. The experiments were performed three times, and the results of the representative experiments are shown. The first cytogram represents an untreated cell sample (A); after incubation with dihydrobetulinic acid for 48 h (B); after incubation with compound 15 for 24 h (C) and for 48 h (D); after incubation with compound 15c for 24 h (E) and for 48 h (F); after incubation with compound 18c for 24 h (G) and for 48 h (H); after incubation with compound 20c for 24 h (I) and for 48 h (J). […]

On to `CC(=O)O[C@H]1CC[C@@]2(C)C(CC[C@]3(C)C2CCC2C4C(C(C)C)CC[C@]4(C(=O)OCC(N)(CO)CO)CC[C@]23C)C1(C)C` (stereo partly drawn) [Compound 15, 3β-[2-Amino-3-hydroxy-2-(hydroxymethyl)propyl]-3-O-acetyl-lupane-28-oate], for which the IC50 in experiment [1] was 6.6 ± 0.23 µM; with normal human fibroblasts, 31 ± 0.29 µM. Besides, the “cells in G2/M phase” value in the experiment on Jurkat cells is recorded as 7.0%. The “cells in S phase” value with Jurkat cells (control 38.3%) was 72.7%.

In the case of `CC(=O)O[C@H]1CC[C@@]2(C)C(CC[C@]3(C)C2CCC2C4C(C(C)C)CC[C@]4(C(=O)OCC(CO)(CO)NC(=N)N)CC[C@]23C)C1(C)C` (stereo partly drawn) [Compound 15c, 3β-[2-Guanidine-3-hydroxy-2-(hydroxymethyl)propyl]-3-O-acetyl-lupane-28-oate hydrochloride], the IC50 came out at 15 ± 0.23 µM in experiment [1] and 27 ± 0.14 µM in the experiment with normal human fibroblasts. Moreover, the “cells in G2/M phase” value in the experiment on Jurkat cells stood at 1.5%.
